Assays:
[1] = Stable isotope tracer ultrafiltration assay (SITUA) of rapamycin drug release from ABI-009 lots; assay type: physicochemical; conditions: 10 minutes incubation, 4.5% human serum albumin, 29° C.
Experimental: A study was also undertaken to analyze rapamycin drug release from 12 lots of ABI-009 (Lots #1-10 and Lots 14-15) using a stable isotope tracer ultrafiltration assay (SITUA) (see Skoczen et al., Stable Isotope Method to Measure Drug Release from Nanomedicines, J. Control Release, 220(A):169-174 (2015). Drug release was examined at 10 μg/ml and 500 μg/ml of rapamycin following 10 minutes of incubation. Briefly, stable, isotope-labeled rapamycin was spiked into 4.5% human serum albumin (25% Albutein HSA diluted in 0.9% saline). MeOH-solvent rapamycin (as a control) or fresh reconstituted samples of each lot at 10 μg/ml or 500 μg/ml were added. After 10 minutes of equilibration at 29° C., a portion of the sample is taken and filtered using Vivacon®) 10 kDa MWCO centrifuge devices prewarmed to 29° C. The sample and the ultrafiltrate are analyzed by LC-MS to determine the concentrations of normal rapamycin and isotope-labelled rapamycin. The ultrafilterable fraction of isotope-labeled rapamycin represents a measurement of free unbound fraction.
The encapsulated and unencapsulated nanoparticle fractions can also be calculated.

[2] = system: non-PEComa cancer with TSC1, TSC2 or mTOR mutation; assay: ABI-009 Expanded Access Protocol: single-agent ABI-009 in non-PEComa patients with relevant mTOR pathway mutations; assay type: in vivo, human; design: key: CR: disappearance of all target lesions; PR: at least a 30% decrease in the sum of the longest diameters (SLD) of target lesions; SD: neither sufficient shrinkage of target lesions to qualify for PR, nor sufficient increase to qualify for PD; PD: at least a 20% increase in the SLD of target lesions; conditions: Patient #4, metastatic epithelial ovarian carcinoma
Excerpt: Seven patients were enrolled under ABI-009 Expanded Access Protocol. See Table 14 below for information about their tumor type, relevant mutation, failed prior therapy and response to ABI-009. ABI-009 was produced according to Example 7.

[3] = in vivo; cited from earlier work
[4] = system: ABCB1/ABCG2; conditions: cited from earlier work
[5] = system: malignant PEComa; assay: Case: malignant PEComa patient (TSC1 mutation) who failed everolimus, then treated with nab-sirolimus; assay type: in vivo, human
Experimental: A post-menopausal person with family history of lymphoma in their parent and breast, ovarian cancer in a paternal aunt, presented with abnormal uterine bleeding in July 2018. […] Following this, a laparoscopic hysterectomy with bilateral salpingo-oophorectomy was performed and pathology was consistent with malignant PEComa which stained positive for smooth muscle actin, HMB-45 and Melan-A (59 mitoses per 10 hpf).
The primary tumor was locally advanced, and no metastatic disease was present at the time of diagnosis, adjuvant chemotherapy was not administered, and the patient was monitored with serial scans.
Upon disease progression, the patient was started on 10 mg everolimus orally daily.
After failure of treatment with everolimus, the patient was treated with nab-sirolimus at 100 mg/m^2 on day 1 and day 8 of a 21 day cycle started in July of 2019. They also received stereotactic radiosurgery to the metastatic lesion in their brain.

[6] = system: tumors with TSC1 or TSC2 mutations; conditions: 2/30 patients; cited from earlier work

CO[C@H]1C[C@@H]2CC[C@@H](C)[C@@](O)(O2)C(=O)C(=O)N2CCCC[C@H]2C(=O)O[C@H]([C@H](C)C[C@@H]2CC[C@@H](O)[C@H](OC)C2)CC(=O)[C@H](C)/C=C(\C)[C@@H](O)[C@@H](OC)C(=O)[C@H](C)C[C@H](C)/C=C/C=C/C=C/1C [Free rapamycin]
Avg. Release (%) ([1]; 10 μg/ml rapamycin): 97.2%
Avg. Release (%) ([1]; 500 μg/ml rapamycin): 18.3%

CC(C)n1nc(-c2ccc3oc(N)nc3c2)c2c(N)ncnc21 [MLN0128]
best response on prior MLN0128 [2]: SD

COc1ccc(COc2cc3oc(=O)c4cc(C(C)O)ccc4c3cc2OC)cc1 (centres unmarked) [Palomid 529]
brain penetration [3]: good brain penetration
affinity for ABCB1/ABCG2 [4]: lacks affinity

CO[C@H]1C[C@@H]2CC[C@@H](C)[C@@](O)(O2)C(=O)C(=O)N2CCCC[C@H]2C(=O)O[C@H]([C@H](C)C[C@@H]2CC[C@@H](OCCO)[C@H](OC)C2)CC(=O)[C@H](C)/C=C(\C)[C@@H](O)[C@@H](OC)C(=O)[C@H](C)C[C@H](C)/C=C/C=C/C=C/1C [everolimus]
CT scan result 2 months after starting everolimus ([5]; everolimus 10 mg orally daily, reduced to 5 mg): progressive disease
adverse event related to everolimus ([5]; three weeks after beginning 10 mg orally daily): hospitalized due to fever and headache
responses in patients with TSC1 or TSC2 mutations [6]: 7%

Source: US20230000844A1, “BIOMARKERS FOR NANOPARTICLE COMPOSITIONS” (Abraxis BioScience, LLC, priority 2019, published 2023)
